This is an account of results in patent US20210278408A1, “METHODS OF TREATMENT OF CANCER WITH SUBSTITUTED PYRROLE AND PYRAZOLE COMPOUNDS AND DIAGNOSIS OF CANCERS SUSCEPTIBLE TO TREATMENT WITH SUBSTITUTED PYRROLE AND PYRAZOLE COMPOUNDS” (Bantam Pharmaceutical, LLC, priority 2018, published 2021).

Holding throughout (type): cell-based, human
One test concerns HUVEC. Description: Anti-proliferative activity, CellTiter-Glo, 72 hours: HUVEC. As to conditions: HUVEC (primary endolithial cells), Cell-Titre-Glo. The protocol: (§1) Anti-proliferative activity of BTM compounds. The anti-proliferative activities of Compound A197 and Compound B19 were compared to 4EGI-1 (a known cancer cell growth inhibitor) in a panel of 99 tumor lines. Methods: A panel of 96 tumor and 3 normal cell lines were tested for sensitivity to the test compound. The cell lines were cultured in standard media and pipetted into 96-well plates at the required plating densities. The cells were acclimated for 24 hours prior to compound testing. Compound was prepared as a stock of 20 mM in DMSO. To prepare dose response curves compound was serially diluted in DMSO and dispensed into the plate wells using a Tecan D300e digital dispenser. The final DMSO concentration was 0.15%. After 72 hours of incubation cell number was determined using the CellTiter-Glo® protocol according to the manufacturers instructions (Promega). In this assay, ATP is measured as a surrogate of cell number. The activity of the compound is determined by comparing untreated cells with treated cells and calculating the % of signal retained. Compound activity is measured as an EC50 of maximum level of efficacy and the two are used to compute an activity area. The table below provides a comparison of activity in a data sample.
(In ATP-based viability assays light output follows the ATP content of the culture.)

The test system of the next test is LoVo. As to the kind of experiment: Anti-proliferative activity, CellTiter-Glo, 72 hours: LoVo. As to conditions: LoVo (colorectal cancer), Cell-Titre-Glo. The procedure:
as §1

A further test deals with SU-DHL-4. Description: Anti-proliferative activity, CellTiter-Glo, 72 hours: SU-DHL-4. The conditions noted are these: SU-DHL-4 (B-cell lymphoma), Cell-Titre-Glo. The procedure:
as §1

In another test the test system is HT-1080. Description: Anti-proliferative activity, CellTiter-Glo, 72 hours: HT-1080. As to conditions: HT-1080 (fibrosarcoma), Cell-Titre-Glo. The procedure: as §1
For a further test, the system named is MDA-MB-157. As to the kind of experiment: Anti-proliferative activity, CellTiter-Glo, 72 hours: MDA-MB-157. The conditions noted are these: MDA-MB-157 (breast cancer); 72 hours; Cell-Titre-Glo. The protocol: as §1
The next test has as its system MIA PaCa-2. As to the kind of experiment: Anti-proliferative activity, CellTiter-Glo, 72 hours: MIA PaCa-2. As to conditions: MIA PaCa-2 (pancreactic cancer (carcinoma)), Cell-Titre-Glo. The procedure:
as §1

The next test concerns SU-DHL-6. As to the kind of experiment: Anti-proliferative activity, CellTiter-Glo, 72 hours: SU-DHL-6. As to conditions: SU-DHL-6 (B-cell lymphoma), Cell-Titre-Glo. The protocol: as §1
A further test concerns A549. As to the kind of experiment: Anti-proliferative activity, CellTiter-Glo, 72 hours: A549. As to conditions: A549 (non-small cell lung cancer), Cell-Titre-Glo. The procedure:
as §1

A further test relates to SK-MEL-28. Description: Anti-proliferative activity, CellTiter-Glo, 72 hours: SK-MEL-28. As to conditions: SK-MEL-28 (melanoma), Cell-Titre-Glo. The protocol: as §1
The subject of another test is MDA-MB-231. As to the kind of experiment: Anti-proliferative activity, CellTiter-Glo, 72 hours: MDA-MB-231. As to conditions: MDA-MB-231 (breast cancer), Cell-Titre-Glo. The protocol:
as §1

The subject of the next test is SU-DHL-10. Description: Anti-proliferative activity, CellTiter-Glo, 72 hours: SU-DHL-10. The conditions noted are these: SU-DHL-10 (B-cell lymphoma), Cell-Titre-Glo. The procedure:
as §1

In a further test the test system is NCI-H2122. Description: Anti-proliferative activity, CellTiter-Glo, 72 hours: NCI-H2122. As to conditions: NCI-H2122 (non-small cell lung cancer), Cell-Titre-Glo. The procedure: as §1
The test system of the next test is NCI-H460. Description: Anti-proliferative activity, CellTiter-Glo, 72 hours: NCI-H460. The conditions noted are these: NCI-H460 (non-small cell lung cancer), Cell-Titre-Glo. The protocol: as §1
For another test, the system named is HCT-116. Description: Anti-proliferative activity, CellTiter-Glo, 72 hours: HCT-116. As to conditions: HCT-116 (colorectal cancer), Cell-Titre-Glo. The procedure:
as §1

The test system of a further test is Jurkat. As to the kind of experiment: Anti-proliferative activity, CellTiter-Glo, 72 hours: Jurkat. As to conditions: Jurkat (T cell leukemia), Cell-Titre-Glo. The procedure:
as §1

The next test deals with HK-2. Description: Anti-proliferative activity, CellTiter-Glo, 72 hours: HK-2. As to conditions: HK-2 (kidney epilithial), Cell-Titre-Glo. The procedure:
as §1

Broadly, the IC50 is the midpoint of a concentration-inhibition curve. Low values mean higher potency, high ones lower potency. For `O=C(O)C(Cc1ccccc1[N+](=O)[O-])=NNc1nc(-c2ccc(Cl)c(Cl)c2)cs1` (mixture of isomers) [Compound 4EGI-1, 4EGI-1, reference compound], the IC50 came to 7.99 µM in the test with HUVEC; 14.1 µM in the test with LoVo; 8.42 µM in the test with SU-DHL-4; 4.66 µM in the test with HT-1080; 11.8 µM with MDA-MB-157; 14.3 µM with MIA PaCa-2. Also, the concentration for half-maximal inhibition (IC50) in the test with SU-DHL-6 turned out to be 7.26 µM; in the test with A549, 21.8 µM; in the test with SK-MEL-28 it was 33.4 µM; in the test on MDA-MB-231 it was 5.77 µM; in the test on SU-DHL-10, 19.5 µM; with NCI-H2122 it was 13.8 µM. Further, the IC50 was determined as 9.46 µM with NCI-H460, 10.5 µM in the test on HCT-116, 13.2 µM in the test with Jurkat and 46 µM with HK-2.
